From paper PMC9127750, “Structure-based design of CDC42 effector interaction inhibitors for the treatment of cancer” (Cell reports, 2022)
Several values for one entry are separate records, joined by “and”; a condition that tells them apart may be missing. Identical values can stand only once.

Tested on: WM3248 melanoma cells, 486 antibodies
Experiment: Reverse phase protein arrays (RPPA)
Format: cell-based, Human
Description: Pellets were snap frozen in liquid nitrogen and shipped to MD Anderson Cancer Center core RPPA facility for RPPA analysis (Table S5). Three biological replicates for each sample were generated.
Nomenclatures on the RPPA heatmaps: name_of_antibody.species_of_antibody.status_of_antibody. V - antibody validated; C - validation of antibody in progress; Q - antibody nonspecific; E – under evaluation; antibodies raised in M - mouse, G - goat, R - rabbit, or T - rat.

CN(C)c1cccc(Nc2cc(-c3ccccc3)nc(C3CCNCC3)n2)c1 [ARN22089, N1,N1-dimethyl-N3-(6-phenyl-2-(piperidin-4-yl)pyrimidin-4-yl)benzene-1,3-diamine]
CRABP1.R.C normalized signal (Norm_10 replicates): 0.873 and 1.131 and 0.976
CRABP2.R.V normalized signal (Norm_10 replicates): 0.772 and 1.150 and 0.822
CREB_pS133.R.C normalized signal (Norm_10 replicates): 1.250 and 0.794 and 1.214
CSK.R.C normalized signal (Norm_10 replicates): 0.836
Calnexin.R.V normalized signal (Norm_10 replicates): 0.966 and 1.158 and 0.937
Caspase.3.cleaved.R.C normalized signal (Norm_10 replicates): 1.008 and 0.891 and 0.879
Caspase.7.cleaved..R.C normalized signal (Norm_10 replicates): 0.971 and 1.258 and 0.862
Caspase.8.M.Q normalized signal (Norm_10 replicates): 0.852 and 1.055
Caspase.8.cleaved.R.C normalized signal (Norm_10 replicates): 0.985 and 0.881 and 0.907
Caveolin.1.R.V normalized signal (Norm_10 replicates): 0.713 and 1.122 and 1.012
Cdc6.R.V normalized signal (Norm_10 replicates): 0.858 and 0.962
Cdc42.R.C normalized signal (Norm_10 replicates): 0.895 and 1.029 and 0.973
Chk1.M.C normalized signal (Norm_10 replicates): 0.842 and 0.983 and 1.001
Chk1_pS296.R.V normalized signal (Norm_10 replicates): 1.115 and 0.789 and 0.942
Chk1_pS345.R.C normalized signal (Norm_10 replicates): 1.171 and 0.894 and 0.992
Chk2.M.V normalized signal (Norm_10 replicates): 0.819 and 1.005
Chk2_pT68.R.C normalized signal (Norm_10 replicates): 1.200 and 0.766 and 0.922
Claudin.7.R.V normalized signal (Norm_10 replicates): 0.930 and 1.663 and 1.163
Collagen.VI.R.V normalized signal (Norm_10 replicates): 1.420 and 0.935 and 0.899
Complex.II.Subunit.M.V normalized signal (Norm_10 replicates): 0.889 and 1.275
Connexin.43.R.C normalized signal (Norm_10 replicates): 1.260 and 0.815
Coup.TFII.R.C normalized signal (Norm_10 replicates): 0.934 and 0.868
Cox2.R.C normalized signal (Norm_10 replicates): 1.023 and 1.193 and 0.953
Cox.IV.R.V normalized signal (Norm_10 replicates): 0.958 and 0.990 and 0.892
Creb.R.C normalized signal (Norm_10 replicates): 1.051 and 0.927
CtIP.R.V normalized signal (Norm_10 replicates): 1.000 and 0.898 and 0.962
Cyclin.B1.R.V normalized signal (Norm_10 replicates): 0.661 and 0.815 and 1.055
Cyclin.D1.R.C normalized signal (Norm_10 replicates): 0.958 and 1.081 and 0.985
Cyclin.D3.M.V normalized signal (Norm_10 replicates): 0.818 and 0.939
Cyclin.E1.R.V normalized signal (Norm_10 replicates): 0.893
Cyclophilin.F.M.V normalized signal (Norm_10 replicates): 0.808 and 1.114 and 1.018
D.a.Tubulin.R.V normalized signal (Norm_10 replicates): 0.881 and 0.967 and 0.966
DAPK1_pS308.M.C normalized signal (Norm_10 replicates): 1.302 and 1.636 and 2.488
DAPK2.R.C normalized signal (Norm_10 replicates): 0.965 and 1.028 and 0.953
DDB.1.R.V normalized signal (Norm_10 replicates): 0.974 and 0.680 and 0.815
DDR1.R.V normalized signal (Norm_10 replicates): 1.019 and 1.079 and 0.961
DDR1_pY513.R.C normalized signal (Norm_10 replicates): 0.985 and 1.129 and 0.914
DJ1.R.V normalized signal (Norm_10 replicates): 0.990 and 1.026 and 0.974
DM.Histone.H3.R.V normalized signal (Norm_10 replicates): 0.928 and 0.824
DM.K9.Histone.H3.M.V normalized signal (Norm_10 replicates): 0.889 and 1.013
DNA.Ligase.IV.R.C normalized signal (Norm_10 replicates): 0.935 and 0.869 and 1.008
DNA_POLG.R.V normalized signal (Norm_10 replicates): 1.018 and 1.199 and 1.023
c.Jun_pS73.R.V normalized signal (Norm_10 replicates): 0.788 and 0.785 and 0.805
c.Kit.R.V normalized signal (Norm_10 replicates): 1.136 and 1.324
c.Met_pY1234_Y1235.R.V normalized signal (Norm_10 replicates): 0.975 and 0.946 and 0.879
c.Myc.R.C normalized signal (Norm_10 replicates): 2.093 and 1.046
cGAS.R.V normalized signal (Norm_10 replicates): 0.953 and 1.217 and 0.956
cdc2_pY15.R.C normalized signal (Norm_10 replicates): 1.104 and 0.582 and 0.878
cdc25C.R.V normalized signal (Norm_10 replicates): 0.721 and 0.808 and 1.017
MYH11.R.C Average (Norm_20, normalized to Norm_0): 1.248
Myosin.IIa.R.C Average (Norm_20, normalized to Norm_0): 1.147
Myosin.IIa_pS1943.R.V Average (Norm_20, normalized to Norm_0): 1.174
Myt1.R.C Average (Norm_20, normalized to Norm_0): 0.994
N.Cadherin.R.V Average (Norm_20, normalized to Norm_0): 0.988
N.Ras.M.V Average (Norm_20, normalized to Norm_0): 0.878
NAPSIN.A.R.C Average (Norm_20, normalized to Norm_0): 1.011
NDRG1_pT346.R.V Average (Norm_20, normalized to Norm_0): 1.336
NDUFB4.R.V Average (Norm_20, normalized to Norm_0): 1.022
NRF2.R.C Average (Norm_20, normalized to Norm_0): 0.907
Notch1.R.V Average (Norm_20, normalized to Norm_0): 0.937
Notch1.cleaved.R.V Average (Norm_20, normalized to Norm_0): 0.937
Notch3.R.C Average (Norm_20, normalized to Norm_0): 0.994
Oct.4.R.C Average (Norm_20, normalized to Norm_0): 1.121
P.Cadherin.R.C Average (Norm_20, normalized to Norm_0): 1.346
PAI.1.M.V Average (Norm_20, normalized to Norm_0): 0.985
PAICS.R.C Average (Norm_20, normalized to Norm_0): 0.928
PAK1.R.V Average (Norm_20, normalized to Norm_0): 0.872
PAK4.R.V Average (Norm_20, normalized to Norm_0): 0.993
PAK_pS474_S602_S560.R.V Average (Norm_20, normalized to Norm_0): 1.208
PAR.R.C Average (Norm_20, normalized to Norm_0): 2.108
PARG.R.C Average (Norm_20, normalized to Norm_0): 1.394
PARP.R.V Average (Norm_20, normalized to Norm_0): 1.133
PAX6.R.V Average (Norm_20, normalized to Norm_0): 0.967
PAX8.R.C Average (Norm_20, normalized to Norm_0): 0.941
PCNA.M.C Average (Norm_20, normalized to Norm_0): 0.869
PD.1.R.V Average (Norm_20, normalized to Norm_0): 0.984
PD.L1.R.C Average (Norm_20, normalized to Norm_0): 0.970
PDH.M.V Average (Norm_20, normalized to Norm_0): 0.925
PDHA1.R.V Average (Norm_20, normalized to Norm_0): 0.956
PDHK1.R.C Average (Norm_20, normalized to Norm_0): 0.952
PDK1.R.V Average (Norm_20, normalized to Norm_0): 1.116
PDK1_pS241.R.V Average (Norm_20, normalized to Norm_0): 0.965
